Data on three compounds can be found in patent US8232248B2, “Treatment of rheumatoid arthritis with mammal beta defensins” (Novozymes Adenium Biotech A/S, priority 2008, dated 2012).

Assay type in all cases: cell-based
In assay [1] the test system is TNF production from human peripheral blood mononuclear cells (PBMC). In words: TNF production from PBMC stimulated with LPS, LTA, PGN or Pam3CSK4, 24 h, Cytometric Bead Array. To be noted: for TNF % of control / TNF: Table 18. As to the method:
(§1) Peripheral blood was drawn from healthy volunteers (with approval from the relevant ethical committee in Denmark). Heparinized blood was diluted 1/1 v/v with RPMI and were subjected to Ficoll density centrifugation within 2 h of drawing. Plasma was collected from the top from individual donors and was kept on ice until it was used at 2% in the culture medium (autologous culture medium). Isolated PBMC were resuspended in autologous culture medium and seeded in 96-well culture plates with 255.000 cells per well in a total of 200 μl. […] The concentrations used for stimulation were optimized on 3 different donors in initial experiments, for LPS two different concentrations were used to be sure to be on a cytokine level that is possible to modulate. In some experiments PBMC were treated with Dexamethason and Indomethacin alone and together with LPS or LTA as a control on downregulation of inflammatory cytokines. The supernatants were collected after incubation at 37° C. for 24 hours, and stored at −80° C. until cytokine measurement. Viability was measured by Alamar Blue (Biosource, DALL 1100) in all experiments and in some cases also by MTS (Promega) according to manufacturer's instruction and was in some experiments also judged by counting of the cells by a Nucleocounter.
(§2) Cytokine production in supernatants was measured by flow cytometry with a human inflammation cytometric bead array (CBA) according to manufacturer's instructions (BD) on a FACSarray flow cytometer. The following cytokines were measured: IL-8, IL-1β, IL-10, TNF, IL-12 p70, IL-6. In some experiments, cytokines were measured by ELISA kits from R&D systems (IL-10, TNF-α, IL-1β) according to the manufacturer' instruction.
(§3) All experiments were performed at least twice, with representative results shown. The data presented are expressed as mean plus/minus standard deviation (SD). […] Differences were considered significant for p<0.05.
Example 3 was carried out essentially as described in Example 2. […]

The test system of assay [2] is IL-1β production from human peripheral blood mononuclear cells (PBMC). Briefly: IL-1β production from PBMC stimulated with LPS or LTA, 24 h, Cytometric Bead Array. To be noted: Table 20. The method, then:
as §1, §2, §3

Assay [3] concerns IL-10 production from human peripheral blood mononuclear cells (PBMC). In words: IL-10 production from PBMC stimulated with LPS, LTA or PGN, 24 h, Cytometric Bead Array. To be noted: Table 19. The method, then: as §1, §2, §3
The test system of assay [4] is TNF production from mouse peripheral blood mononuclear cells (PBMC). In words: TNF production from mouse PBMC, mouse inflammation CBA. The method, then:
Mouse peripheral blood mononuclear cells were isolated from blood of ten NMRI mice. In short, heparinized blood was diluted 1/1 v/v with RPMI and subjected to Ficoll density centrifugation within 2 h of drawing. Plasma was collected from the top and discarded. Isolated PBMC were resuspended in culture medium (RPMI 1640 (Gibco, 42401) w/1% penicillin and streptomycin and 1% L-Glutamine) and seeded in 96-well culture plates with 115.500 cells per well in a total of 200 μl. […] The supernatants were collected after incubation at 37° C. for 24 hours, and stored at −80° C. until cytokine measurement.
Cytokine production in supernatants was measured by flow cytometry with a mouse inflammation cytometric bead array (CBA) according to manufacturer's instructions (BD) on a FACSarray flow cytometer.

[5] abbreviates: test compound 1 μg/ml, LPS 0.6 ng/ml.
The mark [6] stands for this setting: test compound 1 μg/ml, LPS 20 ng/ml.
Setting [7] is: test compound 1 μg/ml, Medium, non-treated 0.
Setting [8] is: test compound 10 μg/ml, LPS 0.6 ng/ml.
Setting [9] is: test compound 10 μg/ml, LPS 20 ng/ml.
[10] abbreviates: test compound 10 μg/ml, Medium, non-treated 0.
[11] abbreviates: test compound 40 μg/ml, LPS 0.6 ng/ml.
Setting [12] is: test compound 40 μg/ml, LPS 20 ng/ml.
Setting [13] is: test compound 40 μg/ml, Medium, non-treated 0.

Where no end group is shown, it is not given here.

`COc1ccc2c(c1)c(CC(=O)O)c(C)n2C(=O)c1ccc(Cl)cc1` [Indomethacin, reference compound]: the “TNF inhibition (positive controls)” value in assay [1] (PBMC stimulated with LPS or LTA, Table 13) is recorded as “only inhibited TNF (Table 13) after stimulation with LTA”.
Turning to “hBD1: human beta defensin 1, SEQ ID NO:1, obtained from Peptide Institute Inc. (DHYNCVSSGGQCLYSACPIFTKIQGTCYRGKAKCCK; ends and bridges not checked; cysteine pairing not given here; listed as Homo sapiens)”, the “IL-1β % of control” value in assay [2] (setting [5]) stood at 69%; in assay [2] (setting [6]), 82%; in assay [2] (setting [8]), 54%; in assay [2] (setting [9]), 75%; in assay [2] (setting [11]) it was 41%; in assay [2] (setting [12]) it was 63%. The IL-1β in assay [2] (test compound 1 μg/ml, LPS 0.6 ng/ml, non-treated 741) stood at 512 pg/mL; in assay [2] (test compound 1 μg/ml, LPS 20 ng/ml, non-treated 2544) it was 2087 pg/mL; in assay [2] (setting [7]), 0 pg/mL; in assay [2] (test compound 10 μg/ml, LPS 0.6 ng/ml, non-treated 741) it was 401 pg/mL; in assay [2] (test compound 10 μg/ml, LPS 20 ng/ml, non-treated 2544), 1913 pg/mL; in assay [2] (setting [10]) it was 0 pg/mL. Moreover, the IL-1β in assay [2] (test compound 40 μg/ml, LPS 0.6 ng/ml, non-treated 741) turned out to be 302 pg/mL; in assay [2] (test compound 40 μg/ml, LPS 20 ng/ml, non-treated 2544) it was 1599 pg/mL; in assay [2] (setting [13]) it was 0 pg/mL. For the same compound, the “IL-10 % of control” value is 108% in assay [3] (setting [5]); 85% in assay [3] (setting [6]); 114% in assay [3] (setting [8]); 90% in assay [3] (setting [9]); 104% in assay [3] (setting [11]); 102% in assay [3] (setting [12]). The IL-10 is 71 pg/mL in assay [3] (test compound 1 μg/ml, LPS 0.6 ng/ml, non-treated 66); 95 pg/mL in assay [3] (test compound 1 μg/ml, LPS 20 ng/ml, non-treated 111); 0 pg/mL in assay [3] (setting [7]); 76 pg/mL in assay [3] (test compound 10 μg/ml, LPS 0.6 ng/ml, non-treated 66); 100 pg/mL in assay [3] (test compound 10 μg/ml, LPS 20 ng/ml, non-treated 111); 0 pg/mL in assay [3] (setting [10]). For the same compound, the IL-10 in assay [3] (test compound 40 μg/ml, LPS 0.6 ng/ml, non-treated 66) was found to be 69 pg/mL; in assay [3] (test compound 40 μg/ml, LPS 20 ng/ml, non-treated 111) it was 113 pg/mL; in assay [3] (setting [13]), 0 pg/mL. Also, the “TNF % of control” value in assay [1] (setting [5]) was determined as 65%; in assay [1] (setting [6]), 64%; in assay [1] (setting [8]) it was 28%; in assay [1] (setting [9]) it was 61%; in assay [1] (setting [11]), 13%; in assay [1] (setting [12]) it was 46%. In addition, the TNF is 474 pg/mL in assay [1] (test compound 1 μg/ml, LPS 0.6 ng/ml, non-treated 728); 1395 pg/mL in assay [1] (test compound 1 μg/ml, LPS 20 ng/ml, non-treated 2164); 1 pg/mL in assay [1] (test compound 1 μg/ml, Medium, non-treated 1); 203 pg/mL in assay [1] (test compound 10 μg/ml, LPS 0.6 ng/ml, non-treated 728); 1311 pg/mL in assay [1] (test compound 10 μg/ml, LPS 20 ng/ml, non-treated 2164); 0 pg/mL in assay [1] (test compound 10 μg/ml, Medium, non-treated 1). Also, the TNF was 91 pg/mL in assay [1] (test compound 40 μg/ml, LPS 0.6 ng/ml, non-treated 728); 999 pg/mL in assay [1] (test compound 40 μg/ml, LPS 20 ng/ml, non-treated 2164); 0 pg/mL in assay [1] (test compound 40 μg/ml, Medium, non-treated 1).
On to “mBD3: mouse beta defensin 3, SEQ ID NO:6, prepared with the same protocol as hBD2 (KINNPVSCLRKGGRCWNRCIGNTRQIGSCGVPFLKCCKRK; ends and bridges not checked; cysteine pairing not given here; listed as Mus musculus)”, for which the TNF came out at 1600 pg/mL in assay [4] (mBD3 1 μg/ml, LPS 20 ng/ml, untreated 2063); 347 pg/mL in assay [4] (mBD3 1 μg/ml, Medium, untreated 578); 297 pg/mL in assay [4] (mBD3 10 μg/ml, LPS 20 ng/ml, untreated 2063); 180 pg/mL in assay [4] (mBD3 10 μg/ml, Medium, untreated 578); 195 pg/mL in assay [4] (mBD3 100 μg/ml, LPS 20 ng/ml, untreated 2063); 182 pg/mL in assay [4] (mBD3 100 μg/ml, Medium, untreated 578). Moreover, the “Secretion of TNF from human PBMCs” value in assay [1] (Table 23) was “downregulating the secretion of TNF from human PBMCs to the same extend as hBD2 and dexamethason”.
